The record followed here is article PMC7589200, “Identification of Putative Non-Substrate-Based XT-I Inhibitors by Natural Product Library Screening” (Biomolecules, 2020).

What is called remaining activity is the signal under treatment as a percentage of the control signal.

Structures can show the parent of a compound that is named as a salt.

In the test the target is T1, recombinant human XT-I (Homo sapiens, UniProt Q86Y38).
T1 sequence (Q86Y38 252-959 limits assumed): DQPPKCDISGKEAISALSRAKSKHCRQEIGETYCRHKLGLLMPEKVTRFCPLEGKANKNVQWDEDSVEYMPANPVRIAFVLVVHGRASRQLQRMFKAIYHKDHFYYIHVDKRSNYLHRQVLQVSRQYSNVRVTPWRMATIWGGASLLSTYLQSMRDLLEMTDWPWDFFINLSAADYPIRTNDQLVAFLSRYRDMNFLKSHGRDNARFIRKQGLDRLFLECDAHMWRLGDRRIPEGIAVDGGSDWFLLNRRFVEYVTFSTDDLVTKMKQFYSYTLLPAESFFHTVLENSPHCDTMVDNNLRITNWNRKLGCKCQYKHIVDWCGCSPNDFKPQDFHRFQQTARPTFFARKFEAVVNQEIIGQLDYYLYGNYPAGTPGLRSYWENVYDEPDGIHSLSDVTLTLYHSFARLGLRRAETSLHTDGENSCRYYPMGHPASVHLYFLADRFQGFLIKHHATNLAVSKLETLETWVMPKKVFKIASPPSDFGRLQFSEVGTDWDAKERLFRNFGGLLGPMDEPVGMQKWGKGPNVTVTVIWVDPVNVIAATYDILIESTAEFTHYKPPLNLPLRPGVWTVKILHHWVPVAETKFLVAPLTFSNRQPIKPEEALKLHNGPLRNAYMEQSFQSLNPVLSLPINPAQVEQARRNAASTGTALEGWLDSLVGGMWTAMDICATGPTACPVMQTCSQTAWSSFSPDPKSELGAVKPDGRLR
Nature of the test: NP library inhibitor screening, UPLC/ESI-MS/MS XT-I assay. Type of test: biochemical. The settings on record: Table S1; 50 μM inhibitor; relative to negative control containing DMSO; technical duplicates.
`CN(N=O)C(=O)N[C@H]1C(O)O[C@H](CO)[C@@H](O)[C@@H]1O` (mixture of isomers) [Compound 3, Streptozotocin (STZ)]: the “XT-I Activity [%]” value is 101%. On to `OC[C@H]1O[C@@H](O[C@@H]2[C@@H](CO)OC(O)(CO)[C@H]2O)[C@H](O)[C@@H](O)[C@H]1O` (mixture of isomers) [Compound 16, Lactulose], for which the remaining activity at 50 µM turned out to be 122%. In the case of `CO[C@H]1C[C@@H]2CC[C@@H](C)[C@@](O)(O2)C(=O)C(=O)N2CCCC[C@H]2C(=O)O[C@H]([C@H](C)C[C@@H]2CC[C@@H](O)[C@H](OC)C2)CC(=O)[C@H](C)/C=C(\C)[C@@H](O)[C@@H](OC)C(=O)[C@H](C)C[C@H](C)/C=C/C=C/C=C/1C` [Compound 1, Rapamycin (Sirolimus)], the remaining activity at 50 µM is 70%. With `COc1cccc2c1C(=O)c1c(O)c3c(c(O)c1C2=O)C[C@@](O)(C(=O)CO)C[C@@H]3O[C@H]1C[C@H](N)[C@@H](O)[C@H](C)O1` [Compound 2, Epirubicin HCl], the remaining activity at 50 µM was determined as 95%.

In the case of `C[C@@H](O)[C@H]1C(=O)N2C(C(=O)O)=C(S[C@@H]3CN[C@H](CNS(N)(=O)=O)C3)[C@H](C)[C@H]12.O` [Compound 4, Doripenem Hydrate], the “XT-I Activity [%]” value was determined as 86%. As for `C[C@H]1[C@H](NC(=O)/C(=N\OC(C)(C)C(=O)O)c2csc(N)n2)C(=O)N1S(=O)(=O)O` [Compound 5, Aztreonam], the remaining activity at 50 µM worked out at 94%. On the same count and under the same terms, under `CC[C@H]1OC(=O)[C@H](C)[C@@H](O[C@H]2C[C@@](C)(OC)[C@@H](O)[C@H](C)O2)[C@H](C)[C@@H](O[C@@H]2O[C@H](C)C[C@H](N(C)C)[C@H]2O)[C@](C)(O)C[C@@H](C)C(=O)[C@H](C)[C@@H](O)[C@]1(C)O` [Compound 6, Erythromycin] stands 105%; under `Nc1[nH]c(=O)ncc1F` [Compound 7, Flucytosine], 93%. On the same count and under the same terms, as for `CO[C@H]1/C=C/O[C@@]2(C)Oc3c(C)c(O)c4c(c3C2=O)C2=NC3(CCN(CC(C)C)CC3)NC2=C(NC(=O)/C(C)=C\C=C\[C@H](C)[C@H](O)[C@@H](C)[C@@H](O)[C@@H](C)[C@H](OC(C)=O)[C@@H]1C)C4=O` [Compound 8, Rifabutin], the figure is 112%; as for `Nc1ncnc2c1ncn2[C@@H]1O[C@H](CO)[C@@H](O)[C@@H]1O` [Compound 9, Vidarabine], 103%; as for `O=c1c(-c2ccc(O)cc2)coc2cc(O)ccc12` [Compound 10, Daidzein], 115%. For `CC(=O)[C@H]1CC[C@H]2[C@@H]3CC=C4C[C@@H](O)CC[C@]4(C)[C@H]3CC[C@]12C` [Compound 11, Pregnenolone], the “XT-I Activity [%]” value is recorded as 95%. Still for that read-out and setting: under `CO[C@H]1/C=C\C=C(/C)C(=O)NC2=CC(=O)C(NCCN(C)C)=C(C[C@@H](C)C[C@H](OC)[C@H](O)[C@@H](C)/C=C(\C)[C@@H]1OC(N)=O)C2=O.Cl` [Compound 12, Alvespimycin (17-DMAG) HCl] stands 120%.

Take `COc1cc([C@@H]2c3cc4c(cc3[C@@H](O[C@@H]3O[C@@H]5CO[C@@H](C)O[C@H]5[C@H](O)[C@H]3O)[C@H]3COC(=O)[C@H]23)OCO4)cc(OC)c1O` [Compound 13, Etoposide]: the remaining activity at 50 µM is 114%. Same read-out and setting: as for `C=C1C(=O)O[C@@H]2/C=C(\C)CC/C=C(\C)CC[C@@H]12` [Compound 14, Costunolide], the figure is 121%; as for `CC1=C(/C=C/C(C)=C/C=C/C(C)=C\C(=O)O)C(C)(C)CCC1` [Compound 15, Isotretinoin], 86%. Take `Cn1c(=O)c2[nH]cnc2n(C)c1=O` [Compound 18, Aminophylline]: the remaining activity at 50 µM came out at 122%. Still for that read-out and setting: under `O=C(O)c1cccnc1` [Compound 19, Nicotinic Acid] stands 126%. On the same count and under the same terms, under `CO[C@H]1/C=C/O[C@@]2(C)Oc3c(C)c(O)c4c(O)c(c5c(nc6cc(C)ccn65)c4c3C2=O)NC(=O)/C(C)=C\C=C\[C@H](C)[C@H](O)[C@@H](C)[C@@H](O)[C@@H](C)[C@H](OC(C)=O)[C@@H]1C` [Compound 20, Rifaximin] stands 83%; under `CCn1cc(C(=O)O)c(=O)c2cc(F)c(N3CCN(C)CC3)cc21` [Compound 21, Pefloxacin Mesylate], 108%; under `Cc1cc(NS(=O)(=O)c2ccc(N)cc2)no1` [Compound 22, Sulfamethoxazole], 121%.

With `CC(=O)O[C@@]12CO[C@@H]1C[C@H](O)[C@@]1(C)C(=O)[C@H](O)C3=C(C)[C@@H](OC(=O)[C@H](O)[C@@H](NC(=O)OC(C)(C)C)c4ccccc4)C[C@@](O)([C@@H](OC(=O)c4ccccc4)[C@H]21)C3(C)C` [Compound 23, Docetaxel], the remaining activity at 50 µM stood at 104%. `COc1cc2c(cc1O)CC[C@@H]1[C@@H]2CC[C@]2(C)[C@@H](O)CC[C@@H]12` [Compound 24, 2-Methoxyestradiol (2-MeOE2)]: the “XT-I Activity [%]” value came to 114%. Take `C[C@@H]1C[C@H]2[C@@H]3CCC4=CC(=O)C=C[C@]4(C)[C@@]3(F)[C@@H](O)C[C@]2(C)[C@@]1(O)C(=O)CO` [Compound 25, Dexamethasone (DHAP)]: the “XT-I Activity [%]” value is listed as 106%.

As for `C[C@@H](O)[C@H]1C(=O)N2C(C(=O)O)=C(S[C@@H]3CN[C@H](C(=O)N(C)C)C3)[C@H](C)[C@H]12` [Compound 26, Meropenem], the remaining activity at 50 µM is 107%. Regarding `C[C@@H]1C/C=C/C=C/C=C/C=C/[C@H](O[C@@H]2O[C@H](C)[C@@H](O)[C@H](N)[C@@H]2O)C[C@@H]2O[C@](O)(C[C@@H](O)C[C@H]3O[C@@H]3/C=C/C(=O)O1)C[C@H](O)[C@H]2C(=O)O` [Compound 27, Natamycin], the remaining activity at 50 µM amounted to 95%.

In the case of `CCCSc1ccc2nc(NC(=O)OC)[nH]c2c1` [Compound 28, Albendazole], the remaining activity at 50 µM was found to be 77%.

On to `CCC(C)(C)c1ccc(CC(C)CN2C[C@@H](C)O[C@@H](C)C2)cc1` (stereo partly drawn) [Compound 29, Amorolfine HCl], for which the remaining activity at 50 µM stood at 70%. Still for that read-out and setting: under `CO[C@H]1/C=C/O[C@@]2(C)Oc3c(C)c(O)c4c(O)c(c(/C=N/N5CCN(C6CCCC6)CC5)c(O)c4c3C2=O)NC(=O)/C(C)=C\C=C\[C@H](C)[C@H](O)[C@@H](C)[C@@H](O)[C@@H](C)[C@H](OC(C)=O)[C@@H]1C` [Compound 30, Rifapentine] stands 50%. In the case of `CCC(C)(C)C(=O)O[C@H]1C[C@@H](C)C=C2C=C[C@H](C)[C@H](CC[C@@H]3C[C@@H](O)CC(=O)O3)[C@H]21` [Compound 31, Simvastatin], the remaining activity at 50 µM amounted to 82%. `CC(C)[C@H](N)C(=O)OCCOCn1cnc2c(=O)nc(N)[nH]c21.Cl` [Compound 32, Valaciclovir HCl]: the “XT-I Activity [%]” value is reported as 74%.

On to `Cc1noc(NS(=O)(=O)c2ccc(N)cc2)c1C` [Compound 33, Sulfisoxazole], for which the remaining activity at 50 µM stood at 95%.

With `CC(=O)O[C@H]1C(=O)[C@@]2(C)[C@H]([C@H](OC(=O)c3ccccc3)[C@]3(O)C[C@H](OC(=O)[C@H](O)[C@@H](NC(=O)c4ccccc4)c4ccccc4)C(C)=C1C3(C)C)[C@]1(OC(C)=O)CO[C@@H]1C[C@@H]2O` [Compound 34, Paclitaxel], the remaining activity at 50 µM was found to be 79%.
